# Measured values published in US7538111B2, “Benzenesulphonamide derivatives, method for production and use thereof for treatment of pain” (Laboratoires Fournier S.A., priority 2003, dated 2009).
# Where a name gives a salt, the structure may show the parent alone.
# Tested on: not given
# Assay: not given
# Settings: not given
row,Structure (SMILES),melting point
1,COc1cc(C)c(S(=O)(=O)N(C)CCOCC(=O)N2CCC(C(C)(C)CN3CCC3)CC2)c(C)c1.O=C(O)/C=C/C(=O)O,60 to 62 °C
2,"CCN(CCOCC(=O)N1CCN(C2CCN(C)CC2)CC1)S(=O)(=O)c1c(C)cc(OC)cc1C (as salt: fumarate) [Example 21, N-[2-[2-[4-(1-methyl-4-piperidinyl)-1-piperazinyl]-2-oxo-ethoxy]ethyl]-4-methoxy-N-ethyl-2,6-dimethylbenzenesulphonamide, difumarate]",206 °C
3,COc1cc(C)c(S(=O)(=O)N(C)CCOCC(=O)N2CCN(CCCN3CCC3)CC2)c(C)c1.O=C(O)/C=C/C(=O)O.O=C(O)/C=C/C(=O)O,82 °C
4,"CCN1C2CCC1CC(N1CCN(C(=O)COCCN(C)S(=O)(=O)c3c(C)cc(OC)cc3C)CC1)C2 (stereo not drawn) (as salt: fumarate) [Example 46, N-[2-[2-[4-(8-ethyl-8-azabicyclo[3.2.1]oct-3-yl)-1-piperazinyl]-2-oxo-ethoxy]ethyl]-4-methoxy-N,2,6-trimethylbenzenesulphonamide, difumarate]",132 °C
5,COc1cc(Cl)c(S(=O)(=O)N(C)CCOCC(=O)N2CCC(CCN(C)C)CC2)c(Cl)c1.O=C(O)/C=C/C(=O)O,70 °C
6,COc1cc(Cl)c(S(=O)(=O)N(C)CCOCC(=O)N2CCN(CCCN(C)C)CC2)c(Cl)c1.O=C(O)/C=C/C(=O)O.O=C(O)/C=C/C(=O)O,60 °C
7,COc1cc(C)c(S(=O)(=O)N(C)CCOCC(=O)N2CCC(CN3CCC3)CC2)c(C)c1.O=C(O)/C=C/C(=O)O,75 °C
8,COc1cc(C)c(S(=O)(=O)N(C)CCOCC(=O)N2CCC(CCCN(C)C)CC2)c(C)c1.O=C(O)/C=C/C(=O)O,55 °C
9,CCN(CCOCC(=O)N1CCN(CCCN(C)C)CC1)S(=O)(=O)c1c(C)cc(OC)cc1C.O=C(O)/C=C/C(=O)O.O=C(O)/C=C/C(=O)O,60 °C
10,CCN(CC)CCC1CCN(C(=O)COCCN(C)S(=O)(=O)c2c(C)cc(OC)cc2C)CC1.O=C(O)/C=C/C(=O)O,60 °C
11,COc1cc(C)c(S(=O)(=O)N(C)CCOCC(=O)N2CCC(CCCN3CCC3)CC2)c(C)c1.O=C(O)/C=C/C(=O)O,65 °C
12,"COc1cc(C)c(S(=O)(=O)N(CCOCC(=O)N2CCN(CCN3CCCC3)CC2)C2CC2)c(C)c1 (as salt: fumarate) [Example 19, N-[2-[2-[4-[2-(1-pyrrolidinyl)ethyl]-1-piperazinyl]-2-oxo-ethoxy]ethyl]-4-methoxy-N-cyclopropyl-2,6-dimethylbenzenesulphonamide, difumarate]",141 °C

# Results, then the compound that gave them:
row,melting point,Structure (SMILES)
1,55 °C,"COc1cc(C)c(S(=O)(=O)N(C)CCOCC(=O)N2CCC(CCN3CCCC3)CC2)c(C)c1 (as salt: fumarate) [Example 76, 4-methoxy-N,2,6-trimethyl-N-[2-[2-[4-[2-(1-pyrrolidinyl)ethyl]-1-piperidinyl]-2-oxoethoxy]ethyl]benzenesulphonamide, fumarate]"
2,50 °C,"COc1cc(C)c(S(=O)(=O)N(CCOCC(=O)N2CCC(CCN3CCCC3)CC2)C2CC2)c(C)c1 (as salt: fumarate) [Example 79, N-cyclopropyl-4-methoxy-2,6-dimethyl-N-[2-[2-[4-[2-(1-pyrrolidinyl)ethyl]-1-piperidinyl]-2-oxoethoxy]ethyl]benzenesulphonamide, fumarate]"
3,230 °C,"COc1cc(C)c(S(=O)(=O)N(C)CCOCC(=O)N2CCN(C3CCN(C(C)(C)C)CC3)CC2)c(C)c1 (as salt: fumarate) [Example 32, N-[2-[2-[4-[1-(1,1-dimethylethyl)-4-piperidinyl]-1-piperazinyl]-2-oxo-ethoxy]ethyl]-4-methoxy-N,2,6-trimethylbenzenesulphonamide, difumarate]"
4,204 °C,"COc1cc(C)c(S(=O)(=O)N(C)CCOCC(=O)N2CCN(CCCN3CCN(C)CC3)CC2)c(C)c1 (as salt: fumarate) [Example 45, N-[2-[2-[4-[3-(4-methyl-1-piperazinyl)propyl]-1-piperazinyl]-2-oxo-ethoxy]ethyl]-4-methoxy-N,2,6-trimethylbenzenesulphonamide, difumarate]"

# Biological target: T1, B1 receptor of bradykinin (Homo sapiens, UniProt P46663)
# T1 construct: To induce expression of the B1 receptor of bradykinin, the vein segments are allowed to incubate at 37° C; from tissue; host or cells: human umbilical vein rings, endothelium removed, incubated 16 h in EMEM to induce the receptor
# T1 sequence (P46663 1-353): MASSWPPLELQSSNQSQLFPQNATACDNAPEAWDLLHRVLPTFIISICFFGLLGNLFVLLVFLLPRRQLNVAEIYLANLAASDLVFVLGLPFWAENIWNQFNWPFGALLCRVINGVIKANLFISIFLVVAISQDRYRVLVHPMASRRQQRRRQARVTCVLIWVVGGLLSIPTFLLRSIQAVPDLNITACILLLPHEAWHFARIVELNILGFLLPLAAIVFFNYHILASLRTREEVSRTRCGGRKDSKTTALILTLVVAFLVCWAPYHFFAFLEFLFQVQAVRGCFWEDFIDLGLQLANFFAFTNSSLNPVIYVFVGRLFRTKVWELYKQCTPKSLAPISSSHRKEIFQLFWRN
# Assay: human umbilical vein contraction by des-Arg10-Kallidin, antagonism at the B1 receptor of bradykinin
# Assay type: cell-based
# Settings: isolated human umbilical vein rings, agonist des-Arg10-Kallidin, pKB=-log KB from EC50 concentration ratio
# Procedure: This test uses the human umbilical vein and is conducted as per the following protocol:
# The cord is dissected in Krebs solution to release the umbilical vein. The vein is cleansed of all adhering tissue and cut into small rings 3-4 mm in width. The endothelium is carefully removed by inserting a fine n° 1 catheter, made slightly abrasive, into the vessel lumen.
# After a series of rinsings, rests and load readjustments, the maximum contraction of each segment is determined by further depolarisation with the KPSS solution.
# After a new rest period during which the 1 g load is constantly readjusted, the following compounds are added to the isolated organ bath: Mepyramine (1 μM), Atropine (1 μM), Indometacine (3 μM), LNA (30 μM), Captopril (10 μM), DL-Thiorphan (1 μM) and Nifedipine (0.1 μM).
# After 20 minutes, the molecule to be tested or the molecule solvent is added to the isolated organ bath. The molecules are examined at 10 μM; should a molecule show a sufficient level of activity, it is examined at lower concentrations (eg: 1-0.1-0.01 μM).
# After 15 minutes incubation, the vein segments are contracted through the addition of increasing concentrations of des-Arg10-Kallidin (0.1 nM to 30 000 nM) in the chamber.
# The pKB=[−log KB] is obtained from the equation: KB—[A]/(concentration ratio−1) in which [A] is the concentration of antagonist and the (concentration ratio) represents the ratio between EC50 in the presence of an antagonist and EC50 in the absence of antagonist.
row,Structure (SMILES),Kb
1,"CCN1C2CCC1CC(N1CCN(C(=O)COCCN(C)S(=O)(=O)c3c(C)cc(OC)cc3C)CC1)C2 (stereo not drawn) [Example 46, N-[2-[2-[4-(8-ethyl-8-azabicyclo[3.2.1]oct-3-yl)-1-piperazinyl]-2-oxo-ethoxy]ethyl]-4-methoxy-N,2,6-trimethylbenzenesulphonamide, difumarate]",2.51 nM
2,"COc1cc(C)c(S(=O)(=O)N(CCOCC(=O)N2CCN(CCN3CCCC3)CC2)C2CC2)c(C)c1 [Example 19, N-[2-[2-[4-[2-(1-pyrrolidinyl)ethyl]-1-piperazinyl]-2-oxo-ethoxy]ethyl]-4-methoxy-N-cyclopropyl-2,6-dimethylbenzenesulphonamide, difumarate]",31.6 nM

# Continued, values first:
row,Kb,Structure (SMILES)
1,0.631 nM,"COc1cc(C)c(S(=O)(=O)N(C)CCOCC(=O)N2CCN(C3CCN(C(C)(C)C)CC3)CC2)c(C)c1 [Example 32, N-[2-[2-[4-[1-(1,1-dimethylethyl)-4-piperidinyl]-1-piperazinyl]-2-oxo-ethoxy]ethyl]-4-methoxy-N,2,6-trimethylbenzenesulphonamide, difumarate]"
2,12.6 nM,"COc1cc(C)c(S(=O)(=O)N(C)CCOCC(=O)N2CCN(CCCN3CCN(C)CC3)CC2)c(C)c1 [Example 45, N-[2-[2-[4-[3-(4-methyl-1-piperazinyl)propyl]-1-piperazinyl]-2-oxo-ethoxy]ethyl]-4-methoxy-N,2,6-trimethylbenzenesulphonamide, difumarate]"
3,0.631 nM,"CCN1CCC(C2CCN(C(=O)COCCN(C)S(=O)(=O)c3c(C)cc(OC)cc3C)CC2)CC1 [Example 84, 4-methoxy-N,2,6-trimethyl-N-[2-[2-[4-(1-ethyl-4-piperidinyl)-1-piperidinyl]-2-oxoethoxy]ethyl]benzenesulphonamide, fumarate]"
4,7.94 nM,"COc1cc(C)c(S(=O)(=O)N(C)CCOCC(=O)N2CCC(N3CCCN(C)CC3)CC2)c(C)c1 [Example 89, N-[2-[2-[4-(hexahydro-4-methyl-1H-1,4-diazepin-1-yl)-1-piperidinyl]-2-oxoethoxy]ethyl]-4-methoxy-N,2,6-trimethylbenzenesulphonamide, fumarate]"
5,10 nM,"COc1cc(C)c(S(=O)(=O)N(C)CCOCC(=O)N2CCC(CCN3CCCC3)CC2)c(C)c1 [Example 76, 4-methoxy-N,2,6-trimethyl-N-[2-[2-[4-[2-(1-pyrrolidinyl)ethyl]-1-piperidinyl]-2-oxoethoxy]ethyl]benzenesulphonamide, fumarate]"
6,15.8 nM,"CCN(CCOCC(=O)N1CCN(C2CCN(C)CC2)CC1)S(=O)(=O)c1c(C)cc(OC)cc1C [Example 21, N-[2-[2-[4-(1-methyl-4-piperidinyl)-1-piperazinyl]-2-oxo-ethoxy]ethyl]-4-methoxy-N-ethyl-2,6-dimethylbenzenesulphonamide, difumarate]"
7,7.94 nM,"COc1cc(C)c(S(=O)(=O)N(CCOCC(=O)N2CCC(CCN3CCCC3)CC2)C2CC2)c(C)c1 [Example 79, N-cyclopropyl-4-methoxy-2,6-dimethyl-N-[2-[2-[4-[2-(1-pyrrolidinyl)ethyl]-1-piperidinyl]-2-oxoethoxy]ethyl]benzenesulphonamide, fumarate]"

# Tested on: formalin-induced pain response (paw licking)
# Assay: formalin-induced pain response test in mice
# Assay type: in vivo
# Settings: oral route, dose 1 mg/kg, 2nd phase 15 to 30 min after formalin injection
# Procedure: The compounds of the present invention were evaluated for their analgesic property using the formalin-induced pain response test in mice (Shibata, M., Ohkubo, T., Takahashi, H. & R. Inoki. Modified formalin test: characteristic biphasic pain response. Pain, 38, 347-352). To summarize, formalin (0.92% in physiological saline) is injected into the hind paw and the period of paw licking, which represents pain intensity, is recorded from 0 to 5 min (1st phase) and from 15 to 30 min (2nd phase) after the injection.
row,Structure (SMILES),percentage inhibition of the second paw licking phase induced by formalin
1,"COc1cc(C)c(S(=O)(=O)N(C)CCOCC(=O)N2CCN([C@@H]3CN4CCC3CC4)CC2)c(C)c1 [Example 6, N-[2-[2-[4-[(3S)-1-azabicyclo[2.2.2]oct-3-yl]-1-piperazinyl]-2-oxo-ethoxy]ethyl]-4-methoxy-N,2,6-trimethylbenzenesulphonamide, fumarate]",40%

# Same assay, conditions: oral route, dose 3 mg/kg, 2nd phase 15 to 30 min after formalin injection
row,Structure (SMILES),percentage inhibition of the second paw licking phase induced by formalin
1,"COc1cc(C)c(S(=O)(=O)N(C)CCOCC(=O)N2CCN(C3CN4CCC3CC4)CC2)c(C)c1 (racemic) [Example 4, N-[2-[2-[4-[(3RS)-1-azabicyclo[2.2.2]oct-3-yl]-1-piperazinyl]-2-oxo-ethoxy]ethyl]-4-methoxy-N,2,6-trimethylbenzenesulphonamide, difumarate]",43%
